Source: patent US12428442B2, “Compounds, compositions and methods for synthesis” (WAVE LIFE SCIENCES LTD., priority 2017, dated 2025)

Assay: Measuring pKa value of amino alcohols by titration against NaOH in MDA/KCl
Settings: MDA = Methanol-Dioxane-Acetonitrile, 1:1:1
Method: To this clear solution was added 6 μL of con. HCl and stirred well. This solution was titrated against 1 M NaOH solution. NaOH solution was added in 2 (or 4) ml increments. During the addition of each increment of NaOH solution, pH of the solution was recorded using a pH meter until a pH of 12 was measured. The measured titration values were analyzed (graph pad software was used) to determine the first derivative of the volume of NaOH used in the titration. This first derivative value is the pKa of the amino alcohol.

SMILES | solubility of sample in MDA mixture
C[Si](C[C@H](O)[C@H]1CCCN1)(C1CCCCC1)C1CCCCC1 [WV-CA-041-D] | Sample Insoluble in MDA
C[Si](C[C@@H](O)[C@@H]1CCCN1)(C1CCCCC1)C1CCCCC1 [WV-CA-041-L] | Sample Insoluble in MDA
C[Si](C[C@@H](O)[C@@H]1CCCCN1)(C1CCCCC1)C1CCCCC1 [WV-CA-045] | Insoluble in MDA mixture
C[Si](C[C@H](O)[C@@H]1CCCCN1)(C1CCCCC1)C1CCCCC1 [WV-CA-046] | Insoluble in MDA mixture
